Data set [1] has as its system Mus musculus. The data set is described as follows: Induction of Treg cell differentiation in DSS- induced ulcerative colitis mouse model assessed as increase in Foxp3 mRNA level at 28 to 56 mg/kg, po administered for 10 consecutive days by Q-PCR analysis. The conditions noted are these: dose 28-56 mg/kg, time 10.0 day. It is filed as functional, organism-based.
The subject of data set [2] is Mus musculus. Description: Induction of Treg cell differentiation in DSS- induced ulcerative colitis mouse model assessed as number of Treg cells in mesenteric lymph nodes at 28 mg/kg, po administered for 10 consecutive days by flow cytometry analysis (Rvb= 7.52%). It is filed as functional. The conditions noted are these: time 10 day.
Data set [3] relates to Mus musculus. The data set is described as follows: Induction of Treg cell differentiation in DSS- induced ulcerative colitis mouse model assessed as number of Treg cells in mesenteric lymph nodes at 56 mg/kg, po administered for 10 consecutive days by flow cytometry analysis (Rvb= 7.52%). It is filed as functional. Particulars: time 10 day.
Data set [4] relates to Mus musculus. Description: Antiinflammatory activity in DSS-induced ulcerative colitis mouse model assessed as reduction in DAI score at 28 to 56 mg/kg, po administered for 10 consecutive days. It counts as functional, organism-based. The conditions noted are these: dose 28-56 mg/kg, time 10.0 day.
For data set [5], the system named is Mus musculus. Description: Induction of Treg cell differentiation in DSS- induced ulcerative colitis mouse model assessed as number of Treg cells in colonic lamina proprias at 56 mg/kg, po administered for 10 consecutive days by flow cytometry analysis (Rvb= 7.97%). The conditions noted are these: time 10 day. It is filed as functional.
Data set [6] deals with T-cell. The data set is described as follows: Induction of cell differentiation in anti-CD3/CD28 stimulated naive T-cells assessed as upregulation of Foxp3 mRNA expression at 0.3 to 3 uM measured after 72 hrs by Q-PCR analysis. It is filed as functional, cell-based. The conditions noted are these: dose 0.3-3 µM.
Data set [7] has as its system T-cell. The data set is described as follows: Induction of cell differentiation in anti-CD3/CD28 stimulated naive T-cells assessed as upregulation of CD4+ CD25+ cell frequency at 1 uM measured after 72 hrs by flow cytometry analysis. It counts as functional, cell-based.
The test system of data set [8] is Mus musculus. Description: Induction of Treg cell differentiation in DSS- induced ulcerative colitis mouse model assessed as increase in IL-10 mRNA level at 28 to 56 mg/kg, po administered for 10 consecutive days by Q-PCR analysis. It counts as functional, organism-based. The conditions noted are these: dose 28-56 mg/kg, time 10.0 day.
In data set [9] the test system is Mus musculus. The data set is described as follows: Induction of Treg cell differentiation in DSS- induced ulcerative colitis mouse model assessed as number of Treg cells in spleens at 28 mg/kg, po administered for 10 consecutive days by flow cytometry analysis (Rvb= 6.49%). It is filed as functional. The conditions noted are these: time 10 day.
Data set [10] relates to Mus musculus. Description: Antiinflammatory activity in DSS-induced ulcerative colitis mouse model assessed as reduction in MPO activity at 28 to 56 mg/kg, po administered for 10 consecutive days. It is filed as functional, organism-based. Particulars: dose 28-56 mg/kg, time 10.0 day.
The subject of data set [11] is T-cell. The data set is described as follows: Induction of cell differentiation in anti-CD3/CD28 stimulated naive T-cells assessed as upregulation of IL-10 mRNA expression at 0.3 to 3 uM measured after 72 hrs by Q-PCR analysis. It counts as functional, cell-based. The conditions noted are these: dose 0.3-3 µM.
Data set [12] has as its system T-cell. The data set is described as follows: Induction of cell differentiation in anti-CD3/CD28 stimulated naive T-cells assessed as upregulation of Foxp3 mRNA expression at 1 uM measured after 72 hrs by Q-PCR analysis. It is filed as functional, cell-based.
Data set [13] relates to T-cell. The data set is described as follows: Induction of cell differentiation in anti-CD3/CD28 stimulated naive T-cells assessed as number of Treg cells at 0.3 uM measured after 72 hrs by flow cytometry analysis (reference value: 24 %). It is filed as functional.
The test system of data set [14] is T-cell. Description: Induction of cell differentiation in anti-CD3/CD28 stimulated naive T-cells assessed as number of Treg cells at 3 uM measured after 72 hrs by flow cytometry analysis (reference value: 24 %). It counts as functional.
Data set [15] deals with Mus musculus. Description: Antiinflammatory activity in DSS-induced ulcerative colitis mouse model assessed as protection against colon destruction at 28 to 56 mg/kg, po administered for 10 consecutive days by HE staining based histopathological analysis. It counts as functional, organism-based. Particulars: dose 28-56 mg/kg, time 10.0 day.
Data set [16] has as its system Mus musculus. Description: Induction of Treg cell differentiation in DSS- induced ulcerative colitis mouse model assessed as number of Treg cells in colonic lamina proprias at 28 mg/kg, po administered for 10 consecutive days by flow cytometry analysis (Rvb= 7.97%). Particulars: time 10 day. It counts as functional.
The subject of data set [17] is T-cell. The data set is described as follows: Induction of cell differentiation in anti-CD3/CD28 stimulated naive T-cells assessed as number of Treg cells at 1 uM measured after 72 hrs by flow cytometry analysis (reference value: 24 %). It is filed as functional.
For the next data set, the system named is EL4. The data set is described as follows: Cytotoxicity against mouse EL4 cells assessed as effect on cell viability at 1 to 10 uM measured after 72 hrs by MTT assay. It is filed as cell-based. Particulars: el4, 72 h, dose 1-10 µM.
Data set [18] deals with Mus musculus. Description: Antiinflammatory activity in DSS-induced ulcerative colitis mouse model assessed as rescue of colon length shortening at 28 to 56 mg/kg, po administered for 10 consecutive days. It counts as functional, organism-based. The conditions noted are these: dose 28-56 mg/kg, time 10.0 day.
Data set [19] deals with Mus musculus. The data set is described as follows: Antiinflammatory activity in DSS-induced ulcerative colitis mouse model assessed as protection against inflammation of colons at 28 to 56 mg/kg, po administered for 10 consecutive days by HE staining based histopathological analysis. The conditions noted are these: dose 28-56 mg/kg, time 10.0 day. It counts as functional, organism-based.

Data set [20] relates to Mus musculus. Description: Induction of Treg cell differentiation in DSS- induced ulcerative colitis mouse model assessed as number of Treg cells in spleens at 56 mg/kg, po administered for 10 consecutive days by flow cytometry analysis (Rvb= 6.49%). The conditions noted are these: time 10 day. It is filed as functional.
In data set [21] the test system is Mus musculus. The data set is described as follows: Antiinflammatory activity in DSS-induced ulcerative colitis mouse model assessed as reduction in MPO activity at 200 mg/kg, po administered for 10 consecutive days. It counts as functional, organism-based. The conditions noted are these: time 10.0 day.
For data set [22], the system named is Mus musculus. The data set is described as follows: Induction of Treg cell differentiation in DSS- induced ulcerative colitis mouse model assessed as number of Treg cells in spleens at 200 mg/kg, po administered for 10 consecutive days by flow cytometry analysis (Rvb= 6.49%). Particulars: time 10 day. It counts as functional.
The test system of data set [23] is Mus musculus. The data set is described as follows: Antiinflammatory activity in DSS-induced ulcerative colitis mouse model assessed as reduction in DAI score at 200 mg/kg, po administered for 10 consecutive days. It counts as functional, organism-based. Particulars: time 10.0 day.
In data set [24] the test system is Mus musculus. Description: Induction of Treg cell differentiation in DSS- induced ulcerative colitis mouse model assessed as number of Treg cells in colonic lamina proprias at 200 mg/kg, po administered for 10 consecutive days by flow cytometry analysis (Rvb= 7.97%). It is filed as functional. The conditions noted are these: time 10 day.
The subject of data set [25] is Mus musculus. Description: Induction of Treg cell differentiation in DSS- induced ulcerative colitis mouse model assessed as number of Treg cells in mesenteric lymph nodes at 200 mg/kg, po administered for 10 consecutive days by flow cytometry analysis (Rvb= 7.52%). It counts as functional. Particulars: time 10 day.
The subject of data set [26] is Mus musculus. Description: Antiinflammatory activity in DSS-induced ulcerative colitis mouse model assessed as rescue of colon length shortening at 200 mg/kg, po administered for 10 consecutive days. It counts as functional, organism-based. The conditions noted are these: time 10.0 day.
The test system of data set [27] is Mus musculus. The data set is described as follows: Antiinflammatory activity in DSS-induced ulcerative colitis mouse model assessed as protection against inflammation of colons at 200 mg/kg, po administered for 10 consecutive days by HE staining based histopathological analysis. It is filed as functional, organism-based. The conditions noted are these: time 10.0 day.

In data set [28] the test system is Mus musculus. Description: Antiinflammatory activity in DSS-induced ulcerative colitis mouse model assessed as protection against colon destruction at 200 mg/kg, po administered for 10 consecutive days by HE staining based histopathological analysis. It is filed as functional, organism-based. The conditions noted are these: time 10.0 day.

Each structure is given as a SMILES string. Calls of active or inactive are those of the source. The calls are words filed in the database; no cut-off is given here.

Drawing on ChEMBL document CHEMBL4823244, “Synthesis of norisoboldine derivatives and bioactivity assay for inducing the generation of regulatory T cells” (Bioorg Med Chem Lett, 2021), this text covers Activity for 2 compounds.

As for `COc1cc2c(cc1O)CC1c3c(cc(OC)c(O)c3-2)CCN1C(=O)c1cc(C)cc(C)c1` (centres undefined), the result in the data set on Mus musculus [1], with Mus musculus [4], in the data set on T-cell [6], with Mus musculus [8], with Mus musculus [10] and with T-cell [11] was Active. In addition, the result with T-cell [12], in the data set with Mus musculus [15], with Mus musculus [18] and in the data set with Mus musculus [19] was Active. Besides, the Activity with Mus musculus [2] was 11.55%; in the data set with Mus musculus [3], 12.32%; in the data set on Mus musculus [5], 14.5%; with Mus musculus [9] it was 7.03%; in the data set with T-cell [13], 25.2%; with T-cell [14], 36%. Moreover, the Activity in the data set on Mus musculus [16] is on record as 13.57%; in the data set on T-cell [17], 31.1%; with EL4, “Non-Toxic”; with Mus musculus [20], 7.87%. Further, the result in the data set with T-cell [7] was inactive.
For `Nc1ccc(O)c(C(=O)O)c1` [MESALAMINE], the outcome with Mus musculus [21], with Mus musculus [23], in the data set on Mus musculus [26], in the data set on Mus musculus [27] and in the data set with Mus musculus [28] was Active. For the same compound, the Activity in the data set on Mus musculus [22] was found to be 5.9%; in the data set with Mus musculus [24] it was 9.59%; in the data set with Mus musculus [25] it was 7.7%.
